Measurements published in PMC3940891, “Transient Overexpression of adh8a Increases Allyl Alcohol Toxicity in Zebrafish Embryos” (PLoS ONE, 2014).
≈ marks a conversion by molar mass, not a printed value. Entries after “also recorded” stand apart in the source; their conditions may differ. Like-named read-outs stand apart in the source and are kept apart here.

Experiments:
[1] = Quantification of internal allyl alcohol concentration in mRNA-injected embryos by HS-GC-MS; format: in vivo, zebrafish (Danio rerio)
Description: 50 injected embryos were exposed from 8 hpf to 26 hpf with 0.5 or 1 mg/L allyl alcohol. At 26 hpf embryos were manually dechorionated using forceps and transferred into fresh 20 ml glass vials. The exposure medium was removed and embryos were rinsed twice with 2 ml ISO water for 30 sec, transferred into GC-MS headspace vials (Agilent Technologies, Böblingen, Germany). After removal of remaining fluid by using a microliter pipette the vials were closed and embryos were frozen at −20°C for 10 min. Subsequently, embryos were homogenized by 5 min sonication in an ultrasonic bath (Sonorex RK 512 H; Bandelin Electronic, 35 kHz). Chemical analyses were performed immediately after sonication using an Agilent 7890A gas chromatograph with headspace sampler G1888 (Agilent Technologies, Böblingen, Germany). The headspace oven temperature for equilibration of samples was set to 48°C for 10 min. The compound separation was performed using a capillary column (60 m×0.25 i.d.) with a nonpolar stationary phase HP1 (thickness 1.00 µm). Ultra high purity helium was used as carrier gas. Mass spectra were derived with Agilent 5975C inert XL MSD and Triple Axis Detector (Agilent Technologies,) in electron impact ionization mode 70eV. The detector conditions were: ion source temperature 230°C and quadrupole temperature 150°C. The column oven temperature program involved an initial temperature of 45°C for 1 min, an increase at 15°C/min to 150°C (held for 2 min), then an increase at 65°C/min to 250°C (held 0.5 min). The mass spectrometer was operated in selected ion monitoring (SIM) mode for calibration and analyte quantification in samples.
For the allyl alcohol calibration the following concentrations were used: 8.5; 42.5; 85; 425; 850 and 1700 µg/L. 5 µl of the respected concentration were transferred into a headspace vial and directly used for HS-GC-MS analysis. The calibration curve was generated based on peak areas. Exposure concentrations were determined for each replicate at the start of the exposure.

zebrafish embryos = assay: Zebrafish embryo test (acute lethality, 48 h static exposure), non-injected embryos; format: in vivo, zebrafish (Danio rerio)
Description: (§1) The zebrafish embryo test was performed with few modifications according to a standard operation procedure and a static exposure setup without renewal of exposure solutions (ISO 15088, 2006). The following chemicals were used: Allyl alcohol (CAS 107-18-6, purity 99.8%, Sigma-Aldrich, Deisenhofen, Germany), acrolein (CAS 107-02-8, purity ≥99.0%, Sigma-Aldrich, Deisenhofen, Germany), 4-Nitrophenol (CAS 100-02-7, PESTANAL, analytical standard, Sigma-Aldrich, Deisenhofen, Germany), and ethanol (CAS 64-17-5, purity ≥ 99.5%, Carl Roth, Germany). Stock solutions were prepared for each experiment by adding the appropriate amount for the highest test concentration to the exposure media (294.0 mg/L CaCl2*2H2O, 123.3 mg/L MgSO4*7H2O, 64.7 mg/L NaHCO3, 5.7 mg/L KCl). The solutions were prepared one day before the experiment in 100 ml closed graduated flasks and were stirred over night for approximately 14 h. Lower concentrations were obtained by serial dilutions. Fertilized eggs (embryos at 4–32 cell stage) were transferred by a pipette to 24-well plates (1 embryo per well, 10 wells per exposure concentration, Cellstar Greiner Bio-One, Frickenhausen, Germany) or crystallization glass dishes (80 mm diameter, 10–20 embryos per vial and 30 ml of exposure medium), respectively. Exposures were performed in independent triplicates on different days for 48 h from 2-50 hpf (hours post fertilization), 24–72 hpf, and 72–120 hpf. For the 24–72 hpf exposure, part of the embryos were manually dechorionated using forceps. […] At either 2, 8, 24 or 72 hpf the medium was completely removed and replaced by exposure media containing different concentrations of allyl alcohol (2 ml per well or 30 ml per crystallization dish, respectively). The Henry's law coefficients of the test chemicals (allyl alcohol: 4.99*10^−6, ethanol: 5.62*10^−6, 4-nitrophenol: 4.15*10^−10, acrolein: 1.22*10^−4; atm*m^3/mol) indicate a weak volatility for ethanol, allyl alcohol and acrolein. Therefore, in order to reduce potential evaporation, 24-well plates were covered with an adhesive foil; crystallization dishes were covered with a household plastic wrap and watch glasses. For comparison of the LC50 at different stages and the effect of dechorionation, exposure was performed in 24-well plates. For gene expression analysis and microinjection experiments crystallization dishes were used for exposure.
(§2) After 48 h of exposure referring to 50, 72 or 120 hpf stages, the number of dead embryos was counted. Dead embryos were detected according to the criteria given in the ISO standard; i.e., either coagulation, missing heartbeat, failure to develop somites or a lack of detachment of the tail-bud from the yolk sac were considered as indicators of lethality.
The LC50 values ± asymmetric 95% confidence intervals were calculated using the software JMP (SAS, Cary, NC) using the Hill-slope equation for modeling of concentration-response curves: [drawing 1]
Min and Max were set to 0 and 100%, respectively. x and y represented the nominal exposure concentration and the survival rate (percentage).

[2] = source not given; cited from earlier work
[3] = system: gfp, adh8a, adh8b mRNA injected zebrafish embryos; assay: Zebrafish embryo test after microinjection of gfp, adh8a, adh8b or adh8a/b mRNA; format: in vivo, zebrafish (Danio rerio); conditions: for increase in acute toxicity in response to injection of adh8 mRNA: gfp, adh8a, adh8b, adh8a/b mRNA injected embryos
Description: as §1, §2
(§3) Injection needles were pulled from borosilicate glass capillary tubes with filament (GC100F-10; Warner Instruments, LLC, Hamden, CT) using a Narishige micropipette puller (Tokyo, Japan). Embryos were injected with the Eppendorf FemtoJet (Hamburg, Germany) through the chorion into the yolk compartment at the one-cell stage.
(§4) Plasmids with either the cDNA sequence of adh8a or adh8b were purchased from ImaGenes (Berlin, Germany, clone numbers IRBOp991G0334D for adh8a and IRBOp991F02101D for adh8b). The GFP open reading frame was cloned into the pCS2p+ Vector. For synthesis of capped mRNAs, adh8 plasmids were cut with XhoI and pCS2P+GFP was cut with KpnI. 5′ capped mRNA was synthesized with the mMessage Machine SP6 Kit (Life Technologies/Ambion, Darmstadt, Germany) according to the manufacturer's instructions. Injected mRNA concentration was 20–50 ng/µl. Phenol red was added to the RNA samples before injection (0.1% final concentration) in order to allow tracking of successful injections.
(§5) The LC50 values ± asymmetric 95% confidence intervals were calculated using the software JMP (SAS, Cary, NC) using the Hill-slope equation for modeling of concentration-response curves: [drawing 1] […]

fathead minnow = conditions: cited from earlier work; for LC50: fathead minnow ref 27
zebrafish embryo = conditions: cited from earlier work
[4] = Zebrafish embryo test after microinjection of gfp, adh8a, adh8b or adh8a/b mRNA; format: in vivo, zebrafish (Danio rerio); conditions: OBI, zebrafish, in vivo, other: static waterborne exposure in exposure medium, exposure 8-56 h, with chorion, crystallization dish, strain OBI
Description: as §1, §2, §3, §4, §5

[5] = set-up: method as in PMID 22835061; conditions: cited from earlier work; for measured concentration as % of nominal concentration: 24-well plates ref 18
adult zebrafish = system: adult zebrafish; set-up: method as in PMID 22835061; conditions: adult zebrafish ref 18; cited from earlier work
[6] = system: adh8a mRNA injected zebrafish embryos; assay: Time-lapse recording of adh8a mRNA injected embryos exposed to allyl alcohol; format: in vivo; conditions: 5 mg/L allyl alcohol, 24-wells
Description: For time lapse recording of zebrafish embryos were performed using a Leica DMI4000 B inverted microscope (Leica, Wetzlar, Germany), equipped with a digital camera (DFC 350FX; Leica) and 5× objective (HCX PL FLUOTAR, 5.0×0.15 DRY). adh8a mRNA injected were exposed to 5mg/L allyl alcohol in 24-well plates (2 embryos per 2 ml). A constant temperature of 26°C was maintained with a heated stage insert. Embryos were imaged by bright filed every 20 min for 20 h. Images were analyzed using LAS AF software (Leica, Wetzlar, Germany). Video was exported using 3 frames per second.

[7] = adh8a mRNA injected, exposure 8-56 h, with chorion, crystallization dish, strain OBI
[8] = adh8b mRNA injected, exposure 8-56 h, with chorion, crystallization dish, strain OBI
[9] = gfp mRNA injected, exposure 8-56 h, with chorion, crystallization dish, strain OBI

Structure (SMILES): C=CC=O [acrolein]
- acrolein detection in GC/MS chromatograms ([1]; adh8a injected embryos exposed to allyl alcohol): could not detect acrolein
- LC50 (zebrafish embryos; exposure 2-50 hpf, with chorion, no mRNA injected, 24-well plates, strain OBI, n = 1): 0.42 µg/mL
- fold lower LC50 of acrolein compared with allyl alcohol (zebrafish embryos; zebrafish embryos, 2-50 hpf): ~1000 fold
- Henry's law coefficient [2]: 1.22*10^−4 atm*m^3/mol

Structure (SMILES): CCO [ethanol]
- LC50 [3, 7]: 18570 µg/mL
- LC50 ([3]; adh8a/b mRNA injected, exposure 8-56 h, with chorion, crystallization dish, strain OBI): 17780 µg/mL
- LC50 [3, 8]: 16310 µg/mL
- LC50 [3, 9]: 19170 µg/mL
- increase in acute toxicity in response to injection of adh8 mRNA [3]: did not detect any increase
- LC50 (fathead minnow; adult fish): 14700 µg/mL (≈ 319000 µM)
- Henry's law coefficient [2]: 5.62*10^−6 atm*m^3/mol

Structure (SMILES): O=[N+]([O-])c1ccc(O)cc1 [4-Nitrophenol]
- LC50 (zebrafish embryo; zebrafish embryo ref unpublished data): 12.0 µg/mL (≈ 86.3 µM)
- LC50 ([4]; adh8a mRNA injected): 9.65 µg/mL (≈ 69.4 µM)
- LC50 ([4]; adh8a/b mRNA (1:1) injected): 10.2 µg/mL (≈ 73.4 µM)
- LC50 ([4]; adh8b mRNA injected): 9.79 µg/mL (≈ 70.4 µM)
- LC50 ([4]; gfp mRNA injected): 9.45 µg/mL (≈ 67.9 µM)
- increase in acute toxicity in response to injection of adh8 mRNA [3]: did not detect any increase
- LC50 (fathead minnow): 44.8 µg/mL (≈ 322 µM)
- Henry's law coefficient [2]: 4.15*10^−10 atm*m^3/mol

Structure (SMILES): C=CCO [allyl alcohol, Allyl alcohol]
- measured concentration as % of nominal concentration ([5]; 0 h): about 80%
- geometric mean of measured concentrations as % of nominal concentration ([5]; 24-well plates, 48 h ref 18): 47%
- measured concentration as % of nominal concentration ([5]; within 48 h of exposure): about 28%
- LC50 (adult fish) (adult zebrafish): 0.28 µg/mL (≈ 4.82 µM)
- time to coagulation of the embryos [6]: 3 to 9 h
- LC50 ([3]; adh8a mRNA injected embryos, read-out: LC50): 0.0134 mM
- LC50 [3, 7]: 0.78 µg/mL
- LC50 ([3]; adh8a/b mRNA (1:1) injected, exposure 8-56 h, with chorion, crystallization dish, strain OBI): 2.11 µg/mL
- LC50 [3, 8]: 166 µg/mL
- fold reduction of LC50 by adh8b mRNA injection ([3]; adh8b mRNA injections): 2.5 fold
- fold reduction of LC50 by adh8a mRNA injection ([3]; compared to gfp-injected or non-injected embryos): more than 500 fold
- LC50 [3, 9]: 436 µg/mL
- toxicity level (LC50) in adult fish (fathead minnow; fathead minnow ref 19): 0.32 µg/mL
- allyl alcohol detection in embryos by GC-MS ([1]; adh8a mRNA injected embryos): no allyl alcohol was found; also recorded: below the limit of detection
- internal allyl alcohol concentration ([1]; adh8a mRNA injected, 0.5 mg/L nominal, 8-26 hpf, Repl. 1-3, n.d. = not detectable): 0 pg/embryo
- internal allyl alcohol level (below the limit of detection) ([1]; adh8a-injected embryos): < 4.6 µg/L
- internal allyl alcohol concentration (range) ([1]; before decline in adh8a-injected embryos): 0.23-58 ng/embryo
- fold lower LC50 for exposure from 72-120 hpf compared with earlier stages (zebrafish embryos; 72-120 hpf vs earlier exposure periods): 3 fold
- sublethal malformations in exposed embryos (zebrafish embryos; 48 h exposures): No sublethal malformations were observed
- LC50 (zebrafish embryos; exposure 2-50 hpf, non-injected, read-out: LC50): 8.2 mM
- LC50 (zebrafish embryos; exposure 2-50 hpf, with chorion, no mRNA injected, 24-well plates, strain WIK): 478 µg/mL
- LC50 (zebrafish embryos; exposure 8-56 h, with chorion, non-injected control, crystallization dish, strain OBI): 328 µg/mL
- LC50 (zebrafish embryos; exposure 24-72 hpf, with chorion (value paired with 451 mg/L), read-out: LC50): 7.7 mM
- LC50 (zebrafish embryos; exposure 24-72 hpf, with chorion, no mRNA injected, 24-well plates, strain WIK): 451 µg/mL
- LC50 (zebrafish embryos; exposure 24-72 hpf, without chorion (manually removed), no mRNA injected, 24-well plates, strain WIK): 492 µg/mL
- LC50 (zebrafish embryos; exposure 24-72 hpf, without chorion (value paired with 492 mg/L), read-out: LC50): 8.5 mM
- LC50 (zebrafish embryos; exposure 72-120 hpf, hatched, no mRNA injected, 24-well plates, strain WIK): 157 µg/mL
- LC50 (zebrafish embryos; exposure 72-120 hpf, hatched, no mRNA injected, 24-well plates, strain WIK, listed as Allyl alcohol): 159 µg/mL
- LC50 (zebrafish embryos; exposure 72-120 hpf, read-out: LC50): 2.7 mM
- time to coagulation of the embryos (zebrafish embryos; toxic concentration): ≤ 24 h
- fold higher toxic concentrations (lower toxicity) in embryos compared to adult fish (zebrafish embryos; zebrafish embryos vs adult fish): about 1000 fold
- Henry's law coefficient [2]: 4.99*10^−6 atm*m^3/mol

Structure (SMILES): CC=O [acetaldehyde]
- fold higher toxicity compared to the parent compound ethanol (zebrafish embryo; zebrafish embryo ref 25): ~720 fold
- fold higher toxicity compared to the parent compound ethanol (fathead minnow; adult fish ref 27): about 435 fold
